Values quoted from earlier work as cited in US11439638B1, “Drug and diagnostic combination system to identify and treat single-stranded RNA viruses including coronaviruses” (priority 2021, dated 2022).

How the values were obtained:
[1] = test system: influenza viruses, arenaviruses, bunyaviruses, and filoviruses
SARS-CoV-2 = conditions: mammalian cells, in vitro

Compound	effectiveness against viruses [1]	replication of SARS-CoV-2 (SARS-CoV-2)	inhibition of dengue virus (dengue virus)	inhibition of yellow fever virus (yellow fever virus)
NC(=O)c1nc(F)c[nH]c1=O [Favipiravir, favipiravir]	effective			
NC(=O)c1nc(F)cn([C@@H]2O[C@H](COP(=O)(O)OP(=O)(O)OP(=O)(O)O)[C@@H](O)[C@H]2O)c1=O [favipiravir-RTP]	effective			
ivermectin		slow replication	inhibit	inhibit
